Experimental data: the NIST ThermoML archive (doi:10.1021/acs.jced.5b00242)
Numbers after ± are expanded uncertainties.

Tests used:
[1] = 101 kPa, Liquid; for viscosity: Stabinger viscometer; for mass density: Vibrating tube method
[2] = refractive index (Na D-line) (dimensionless); settings: 101 kPa, Liquid, Standard Abbe refractometry

CCn1cc[n+](C)c1.N#C[C-](C#N)C#N [1-ethyl-3-methyl-1H-imidazolium tricyanomethanide]
Settings	mass density, [1] [kg/m3]	refractive index, [2]	viscosity, [1] [mPa·s]
293.15 K	1085 ± 4	1.51454 ± 0.00063	16.62 ± 0.7
298.15 K	1081 ± 4	1.51286 ± 0.00063	14.19 ± 0.6
303.15 K	1077 ± 4	1.51114 ± 0.00063	12.18 ± 0.51
308.15 K	1074 ± 4	1.50938 ± 0.00063	10.58 ± 0.44
313.15 K	1070 ± 4	1.50765 ± 0.00063	9.02 ± 0.38
318.15 K	1067 ± 4	1.50595 ± 0.00063	8.2 ± 0.34
323.15 K	1064 ± 4	1.50419 ± 0.00063	7.31 ± 0.31
328.15 K	1060 ± 4	1.50255 ± 0.00063	6.56 ± 0.28
333.15 K	1057 ± 4	1.50087 ± 0.00063	5.72 ± 0.24
338.15 K	1054 ± 4	1.49921 ± 0.00063	5.38 ± 0.23
343.15 K	1050 ± 4	1.49757 ± 0.00063	4.91 ± 0.21
348.15 K	1047 ± 4	1.49593 ± 0.00063	4.5 ± 0.19
353.15 K	1043 ± 4	1.49429 ± 0.00063	3.98 ± 0.17
